Test results published in US6737383B1, “Herbicidal oxadiazolidines” (priority 1999, dated 2004).

Tests used:
wheat = test: Test B pre/postemergence wheat; assay type: in vivo, Triticum aestivum
Procedure, shortened: (§1)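 Response is a visual 0-to-10 score relative to untreated plants, where 0 means no effect and 10 means complete control, taken twelve to sixteen days after application. Treatments went onto soil at planting and onto foliage of 1- to 4-leaf plants, using a surfactant-containing non-phytotoxic solvent.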

duck salad = test: Test B flood test duck salad; assay type: in vivo, Heteranthera limosa
Description: (§2) At the same time, these crop and weed species were also treated with postemergence applications of test chemicals formulated in the same manner. Plants ranged in height from 2 to 18 cm (1- to 4-leaf stage) for postemergence treatments. Plant species in the flood test consisted of rice (Oryza sativa), smallflower flatsedge (Cyperus difformis), duck salad (Heteranthera limosa) and bamyardgrass (Echinochloa crus-galli) grown to the 2-leaf stage for testing. Treated plants and controls were maintained in a greenhouse for twelve to sixteen days, after which all species were compared to controls and visually evaluated. Plant response ratings, summarized in Table B, are based on a scale of 0 to 10 where 0 is no effect and 10 is complete control. A dash (−) response means no test result.

velvetleaf = test: Test B pre/postemergence velvetleaf; assay type: in vivo, Abutilon theophrasti
Procedure, shortened: as §1

pigweed = test: Test B pre/postemergence pigweed; assay type: in vivo, Amaranthus retroflexus
Procedure, shortened: as §1

soybean = test: Test B pre/postemergence soybean; assay type: in vivo, Glycine max
Procedure, shortened: as §1

corn = test: Test B pre/postemergence corn; assay type: in vivo, Zea mays
Procedure, shortened: as §1

morningglory = test: Test B pre/postemergence morningglory; assay type: in vivo, Ipomoea hederacea
Procedure, shortened: as §1

wild oat = test: Test B pre/postemergence wild oat; assay type: in vivo, Avena fatua
Procedure, shortened: as §1

blackgrass = test: Test B pre/postemergence blackgrass; assay type: in vivo, Alopecurus myosuroides
Procedure, shortened: as §1

surinam grass = test: Test B pre/postemergence surinam grass; assay type: in vivo, Brachiaria decumbens
Procedure, shortened: as §1

bamyardgrass = test: Test B flood test barnyardgrass; assay type: in vivo, Echinochloa crus-galli
Description: as §2

purple nutsedge = test: Test B pre/postemergence purple nutsedge; assay type: in vivo, Cyperus rotundus; settings: Preemergence
Procedure, shortened: as §1

cocklebur = test: Test B pre/postemergence cocklebur; assay type: in vivo, Xanthium strumarium
Procedure, shortened: as §1

rape = test: Test B pre/postemergence rape; assay type: in vivo, Brassica napus
Procedure, shortened: as §1

smallflower flatsedge = test: Test B flood test smallflower flatsedge; assay type: in vivo, Cyperus difformis
Description: as §2

giant foxtail = test: Test B pre/postemergence giant foxtail; assay type: in vivo, Setaria faberii
Procedure, shortened: as §1

bedstraw = test: Test B pre/postemergence bedstraw; assay type: in vivo, Galium aparine
Procedure, shortened: as §1

crabgrass = test: Test B pre/postemergence crabgrass; assay type: in vivo, Digitaria sanguinalis
Procedure, shortened: as §1

sugar beet = test: Test B pre/postemergence sugar beet; assay type: in vivo, Beta vulgaris
Procedure, shortened: as §1

[1] = Postemergence, Rate 62 g/ha, scale of 0 to 10, 0 is no effect, 10 is complete control
[2] = Postemergence, Rate 125 g/ha, scale 0 to 10, 0 is no effect, 10 is complete control
[3] = Postemergence, Rate 500 g/ha, scale 0 to 10, 0 is no effect, 10 is complete control
[4] = Preemergence, Rate 62 g/ha, scale 0 to 10 (0 no effect, 10 complete control)
[5] = Preemergence, Rate 125 g/ha, scale 0 to 10, 0 is no effect, 10 is complete control
[6] = Preemergence, Rate 500 g/ha, scale of 0 to 10 where 0 is no effect and 10 is complete control
[7] = Rate 250 g/ha, Postemergence, scale of 0 to 10 where 0 is no effect and 10 is complete control
[8] = Rate 62 g/ha, flood test species, Pre-emergence, visual evaluation after twelve to sixteen days
[9] = Rate 125 g/ha, under heading Pre-emergence, flood test species, visual evaluation after twelve to sixteen days
[10] = Rate 250 g/ha, Pre-emergence (flood test species), scale 0 to 10, 0 is no effect, 10 is complete control
[11] = Rate 500 g/ha, Pre-emergence section of Table B, 0 to 10 scale (0 no effect, 10 complete control)

SMILES: C=CCCCn1c(=O)on(C(=O)N(c2ccc(Cl)cc2)C(C)C)c1=O [Compound 546]
- Wheat plant response rating (wheat; [1]): 0
- Wheat plant response rating (wheat; [2]): 0
- Plant response rating, Wheat (wheat; [3]): 0
- Wheat plant response rating (wheat; [4]): 0
- Wheat plant response rating (wheat; [5]): 0
- Wheat plant response rating (0 to 10 scale) (wheat; Preemergence, Rate 250 g/ha): 0
- Wheat plant response rating (wheat; [6]): 0
- Plant response rating, Wheat (wheat; [7]): 0
- Plant response rating, Ducksalad (0 to 10 scale, 0 is no effect, 10 is complete control) (duck salad; [8]): 0
- Ducksalad plant response rating (0 to 10 scale, 0 is no effect, 10 is complete control) (duck salad; [9]): 0
- Ducksalad plant response rating (duck salad; [10]): 0
- Ducksalad plant response rating (duck salad; [11]): 0
- Velvetleaf plant response rating (velvetleaf; [1]): 0
- Velvetleaf plant response rating (velvetleaf; [2]): 0
- Plant response rating, Velvetleaf (velvetleaf; [3]): 2
- Velvetleaf plant response rating (velvetleaf; [4]): 0
- Velvetleaf plant response rating (velvetleaf; [5]): 0
- Velvetleaf plant response rating (0 to 10 scale) (velvetleaf; Preemergence, Rate 250 g/ha): 0
- Velvetleaf plant response rating (velvetleaf; [6]): 2
- Redroot pigweed plant response rating (pigweed; [1]): 0
- Plant response rating, Redroot pigweed (pigweed; [3]): 3
- Redroot pigweed plant response rating (pigweed; [5]): 3
- Redroot pigweed plant response rating (0 to 10 scale) (pigweed; Preemergence, Rate 250 g/ha): 10
- Plant response rating, Redroot pigweed (pigweed; [7]): 0
- Soybean plant response rating (soybean; [1]): 1
- Soybean plant response rating (soybean; [2]): 1
- Plant response rating, Soybean (soybean; [3]): 4
- Soybean plant response rating (soybean; [4]): 0
- Soybean plant response rating (soybean; [5]): 0
- Soybean plant response rating (0 to 10 scale) (soybean; Preemergence, Rate 250 g/ha): 0
- Soybean plant response rating (soybean; [6]): 0
- Plant response rating, Soybean (soybean; [7]): 2
- Corn plant response rating (corn; [1]): 0
- Corn plant response rating (corn; [2]): 0
- Plant response rating, Corn (corn; [3]): 0
- Corn plant response rating (corn; [4]): 0
- Corn plant response rating (corn; [5]): 0
- Corn plant response rating (0 to 10 scale) (corn; Preemergence, Rate 250 g/ha): 0
- Corn plant response rating (corn; [6]): 0
- Plant response rating, Corn (corn; [7]): 0
- Morningglory plant response rating (morningglory; [1]): 0
- Morningglory plant response rating (morningglory; [2]): 4
- Plant response rating, Morningglory (morningglory; [3]): 10
- Morningglory plant response rating (morningglory; [4]): 0
- Morningglory plant response rating (morningglory; [5]): 0
- Morningglory plant response rating (0 to 10 scale) (morningglory; Preemergence, Rate 250 g/ha): 0
- Morningglory plant response rating (morningglory; [6]): 0
- Plant response rating, Morningglory (morningglory; [7]): 5
- Wild oats plant response rating (wild oat; [1]): 0
- Wild oats plant response rating (wild oat; [2]): 0
- Plant response rating, Wild oats (wild oat; [3]): 2
- Wild oats plant response rating (wild oat; [4]): 0
- Wild oats plant response rating (wild oat; [5]): 0
- Wild oats plant response rating (0 to 10 scale) (wild oat; Preemergence, Rate 250 g/ha): 0
- Wild oats plant response rating (wild oat; [6]): 3
- Plant response rating, Wild oats (wild oat; [7]): 0
- Blackgrass plant response rating (blackgrass; [1]): 0
- Blackgrass plant response rating (blackgrass; [2]): 0
- Plant response rating, Blackgrass (blackgrass; [3]): 6
- Blackgrass plant response rating (blackgrass; [4]): 0
- Blackgrass plant response rating (blackgrass; [5]): 0
- Blackgrass plant response rating (0 to 10 scale) (blackgrass; Preemergence, Rate 250 g/ha): 0
- Blackgrass plant response rating (blackgrass; [6]): 3
- Plant response rating, Blackgrass (blackgrass; [7]): 3
- B. signalgrass plant response rating (surinam grass; [1]): 0
- B. signalgrass plant response rating (surinam grass; [2]): 0
- Plant response rating, B. signalgrass (surinam grass; [3]): 0
- B. signalgrass plant response rating (surinam grass; [4]): 0
- B. signalgrass plant response rating (0 to 10 scale, 0 is no effect, 10 is complete control) (surinam grass; Preemergence, Rate 250 g/ha): 0
- B. signalgrass plant response rating (surinam grass; [6]): 2
- Plant response rating, B. signalgrass (surinam grass; [7]): 0
- Plant response rating, Barnyardgrass (0 to 10 scale, 0 is no effect, 10 is complete control) (bamyardgrass; [8]): 0
- Barnyardgrass plant response rating (0 to 10 scale, 0 is no effect, 10 is complete control) (bamyardgrass; [9]): 0
- Barnyardgrass plant response rating (bamyardgrass; [10]): 0
- Barnyardgrass plant response rating (bamyardgrass; [11]): 0
- Nutsedge plant response rating (purple nutsedge; Rate 62 g/ha, scale 0 to 10 (0 no effect, 10 complete control)): 0
- Nutsedge plant response rating (purple nutsedge; Rate 125 g/ha, scale 0 to 10, 0 is no effect, 10 is complete control): 0
- Nutsedge plant response rating (0 to 10 scale) (purple nutsedge; Rate 250 g/ha): 0
- Nutsedge plant response rating (purple nutsedge; Rate 500 g/ha, scale of 0 to 10 where 0 is no effect and 10 is complete control): 0
- Cocklebur plant response rating (cocklebur; [1]): 0
- Cocklebur plant response rating (cocklebur; [2]): 0
- Plant response rating, Cocklebur (cocklebur; [3]): 0
- Cocklebur plant response rating (cocklebur; [4]): 0
- Cocklebur plant response rating (cocklebur; [5]): 0
- Cocklebur plant response rating (0 to 10 scale) (cocklebur; Preemergence, Rate 250 g/ha): 0
- Cocklebur plant response rating (cocklebur; [6]): 0
- Plant response rating, Cocklebur (cocklebur; [7]): 0
- Rape plant response rating (rape; [1]): 0
- Rape plant response rating (rape; [2]): 0
- Plant response rating, Rape (rape; [3]): 7
- Rape plant response rating (rape; [4]): 0
- Rape plant response rating (rape; [5]): 0
- Rape plant response rating (0 to 10 scale) (rape; Preemergence, Rate 250 g/ha): 0
- Rape plant response rating (rape; [6]): 0
- Plant response rating, Rape (rape; [7]): 7
- Plant response rating, S. Flatsedge (0 to 10 scale, 0 is no effect, 10 is complete control) (smallflower flatsedge; [8]): 0
- S. Flatsedge plant response rating (0 to 10 scale, 0 is no effect, 10 is complete control) (smallflower flatsedge; [9]): 0
- S. Flatsedge plant response rating (smallflower flatsedge; [10]): 0
- S. Flatsedge plant response rating (smallflower flatsedge; [11]): 0
- Giant foxtail plant response rating (giant foxtail; [1]): 0
- Plant response rating, Giant foxtail (giant foxtail; [3]): 7
- Giant foxtail plant response rating (giant foxtail; [5]): 4
- Giant foxtail plant response rating (0 to 10 scale) (giant foxtail; Preemergence, Rate 250 g/ha): 10
- Giant foxtail plant response rating (giant foxtail; [6]): 10
- Plant response rating, Giant foxtail (giant foxtail; [7]): 4
- Bedstraw plant response rating (bedstraw; [1]): 0
- Bedstraw plant response rating (bedstraw; [2]): 9
- Plant response rating, Bedstraw (bedstraw; [3]): 9
- Bedstraw plant response rating (bedstraw; [4]): 0
- Bedstraw plant response rating (0 to 10 scale) (bedstraw; Preemergence, Rate 250 g/ha): 8
- Plant response rating, Bedstraw (bedstraw; [7]): 9
- Crabgrass plant response rating (crabgrass; [1]): 1
- Crabgrass plant response rating (crabgrass; [2]): 7
- Plant response rating, Crabgrass (crabgrass; [3]): 10
- Crabgrass plant response rating (crabgrass; [4]): 7
- Crabgrass plant response rating (crabgrass; [5]): 7
- Crabgrass plant response rating (0 to 10 scale) (crabgrass; Preemergence, Rate 250 g/ha): 10
- Crabgrass plant response rating (crabgrass; [6]): 10
- Plant response rating, Crabgrass (crabgrass; [7]): 7
- Sugarbeets plant response rating (sugar beet; [1]): 0
- Sugarbeets plant response rating (sugar beet; [2]): 0
- Plant response rating, Sugarbeets (sugar beet; [3]): 5
- Sugarbeets plant response rating (sugar beet; [4]): 0
- Sugarbeets plant response rating (sugar beet; [5]): 0
- Sugarbeets plant response rating (0 to 10 scale) (sugar beet; Preemergence, Rate 250 g/ha): 2
- Sugarbeets plant response rating (sugar beet; [6]): 2
- Plant response rating, Sugarbeets (sugar beet; [7]): 4
